Data reported in patent publication US5286737A, “Method for inhibiting aromatase” (Kureha Kagaku Kogyo Kabushiki Kaisha, priority 1992, dated 1994).
Where two headings read alike, the source gives them in different places.

Legend:
aromatase = target: T1, aromatase (Homo sapiens, UniProt P11511); assay: Aromatase inhibitory activity (H14COOH release from [19-14C]4-androstene-3,17-dione, human placenta microsomes); format: biochemical
T1 construct: microsomes arising from human placenta (0.1 mg/ml, protein concentration); from tissue; host or cells: human placenta microsomes
T1 sequence (P11511 1-503): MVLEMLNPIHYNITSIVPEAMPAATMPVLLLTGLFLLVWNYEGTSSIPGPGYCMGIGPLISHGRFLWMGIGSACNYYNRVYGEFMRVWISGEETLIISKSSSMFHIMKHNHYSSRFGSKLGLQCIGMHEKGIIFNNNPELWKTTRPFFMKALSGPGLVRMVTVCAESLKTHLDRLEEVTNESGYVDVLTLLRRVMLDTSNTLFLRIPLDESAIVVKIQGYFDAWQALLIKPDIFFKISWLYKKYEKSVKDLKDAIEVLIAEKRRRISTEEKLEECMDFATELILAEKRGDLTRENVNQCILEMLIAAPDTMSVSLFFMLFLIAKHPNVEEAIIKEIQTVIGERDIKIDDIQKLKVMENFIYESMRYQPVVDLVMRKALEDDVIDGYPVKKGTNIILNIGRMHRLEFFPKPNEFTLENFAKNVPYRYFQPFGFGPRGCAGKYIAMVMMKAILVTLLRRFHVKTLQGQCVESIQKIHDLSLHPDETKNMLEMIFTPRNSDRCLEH
Description: The aromatase inhibitory activity was measured in the manner described by Covey, D. F., Biochem. and Biophys. Res. Commun., 157 (1) 81-86 (1988). The inhibitory activity of the aromatase with the compounds was evaluated in a 50% inhibitory concentration (IC50) of the aromatase activity.
Aromatase activity was measured in the manner described by Covey, D. F., Biochem. Biophys. Res. Commun. 157 (1), 81-86 (1988).
The inhibitory activity of the aromatase with the compounds was evaluated in 50% inhibitory concentration (IC50) of the aromatase.
An aromatase base was taken from microsomes of human placenta and [19-^14 C]4-androstene-3,17 dione was used as a substrate. H^14 COOH was released into a reaction mixture after aromatization and its radioactivity was measured to evaluate the aromatase activity.
The inhibitory activity of the aromatase and the concentration of the compounds were depicted in a graph from which the IC50 was calculated.
To a solution of phosphoric acid buffer, [19-^14 C]4-androstene-3,17-dione (1×10^-6 M, 2 kBq/ml), microsomes arising from human placenta (0.1 mg/ml, protein concentration), coenzyme (2×10^-3 M, […]), glucose-6-phosphoric acid (4×10^-3 M), and glucose-6-phosphoric acid dehydrogenase (4U/ml) were added and reacted under stirring at 37° C. for 30 min.
The compound that was dissolved in DMSO was added into the reaction mixture and the final concentration of MDSO was in the range of 0.1 to 0.55% by volume. Chloroform (5 ml) was then added into the reaction mixture to terminate the reaction and to allow for recovery of the H^14 COOH in a water layer. The collected water layer (0.1 ml) was added in liquid scintillation cocktail (Atomlight, duPont, 4 ml) to measure its radioactivity. 4-Hydroxyandrostenedione was used as a positive control.

mastocarcinoma = assay: Inhibition of tumor growth in rats with mastocarcinoma after 7,12-dimethylbenzanthracene; format: in vivo, Sprague-Dawley rats; conditions: Rattus norvegicus, 600 h, read-out: I.R. (inhibition rate of tumor growth)
Description: Female Sprague-Dawley rates aged 50 days were orally given 7,12-dimethylbenzanthracene (15 mg/kg) and observed for two months. The rats that developed spontaneous mastocarcinoma were selected and divided into three groups of 15 animals.
The first group was administered daily an ip injection for 20 consecutive days in an amount of 20 mg/kg (body weight) of the compounds in a physiological salt solution (10 ml).
The second group was also treated in the same manner as the first group except that 4-hydroxyandrostenedione was used as a positive control.
The third group was administered only an amount of 10 ml of a physiological salt solution.
After 5 days from the last injection, the rats were sacrificed to enucleate tumors.
The tumors were weighed and the mean tumor weight (T) of the first and the second groups was calculated. The mean tumor weight (C) of the third group was also calculated. […] [formula]

[1] = female Sprague-Dawley rats, daily ip 20 mg/kg for 20 consecutive days, tumors weighed 5 days after last injection
[2] = microsomes of human placenta, 0.1 mg/ml protein, substrate [19-14C]4-androstene-3,17-dione 1×10^-6 M, 37° C., 30 min, read-out: 50% inhibitory concentration (IC50) of the aromatase activity

## OC1(Cn2cncn2)CCCC1Cc1ccc(F)cc1 (stereo not shown) [Comp. No. 1, 2-(p-Fluorobenzyl)-1-(1,2,4-triazoly-1-yl-methyl)cyclopentanol]
aromatase
  IC50: 3.5 µM
mastocarcinoma; [1]
  inhibition in vivo at 20 mg/kg: 60%

## OC1(Cn2ccnc2)CCCC1Cc1ccc(F)cc1 (stereo not shown) [Comp. No. 2, 2-(-Fluorobenzyl)-1-(imidazoly-1-ylmethyl)cyclopentanol]
aromatase
  IC50: 7 µM
mastocarcinoma; [1]
  inhibition in vivo at 20 mg/kg: 70%

## OC1(Cn2cncn2)CCCC1Cc1ccc(F)cc1F (stereo not shown) [Comp. No. 9, 2-(2,4-Difluorobenzyl)-1-(1,2,4-triazoly-1-yl-methyl)cyclopentanol]
aromatase
  IC50: 7.5 µM
mastocarcinoma; [1]
  inhibition in vivo at 20 mg/kg: 72%

## OC1(Cn2ccnc2)CCCC1Cc1ccc(F)cc1F (stereo not shown) [Comp. No. 10, 2-(2,4-Difluorobenzyl)-1-(imidazoly-1-yl-methyl)cyclopentanol]
aromatase
  IC50: 0.48 µM
mastocarcinoma; [1]
  inhibition in vivo at 20 mg/kg: 85%

## C[C@]12CCC(=O)C(O)=C1CC[C@@H]1[C@@H]2CC[C@]2(C)C(=O)CC[C@@H]12 [Control, 4-Hydroxyandrostenedione, reference compound]
aromatase
  IC50: 20 µM

## OC1(Cn2cncn2)CCCC1Cc1ccc(Cl)cc1 (stereo not shown) [compound 3]
aromatase
  IC50: 3.8 µM
mastocarcinoma; [1]
  inhibition in vivo at 20 mg/kg: 64%

## OC1(Cn2ccnc2)CCCC1Cc1ccc(Cl)cc1 (stereo not shown) [compound 4]
aromatase
  IC50: 5 µM
mastocarcinoma; [1]
  inhibition in vivo at 20 mg/kg: 74%

## N#Cc1ccc(CC2CCCC2(O)Cn2cncn2)cc1 (stereo not shown) [compound 5]
aromatase
  IC50: 7.3 µM
mastocarcinoma; [1]
  inhibition in vivo at 20 mg/kg: 60%

## N#Cc1ccc(CC2CCCC2(O)Cn2ccnc2)cc1 (stereo not shown) [compound 6]
aromatase; [2]
  IC50: 4.5 µM
mastocarcinoma; [1]
  inhibition in vivo at 20 mg/kg: 53%

## CC1(C)CCC(Cc2ccccc2-c2ccccc2)C1(O)Cn1ccnc1 (stereo not shown) [compound 7]
aromatase; [2]
  IC50: 3.7 µM
mastocarcinoma; [1]
  inhibition in vivo at 20 mg/kg: 58%

## CC1(C)CCC(Cc2ccc(-c3ccccc3)cc2)C1(O)Cn1ccnc1 (stereo not shown) [compound 8]
aromatase; [2]
  IC50: 4.1 µM
mastocarcinoma; [1]
  inhibition in vivo at 20 mg/kg: 60%

## CC(C)(C)c1ccc(CC2CCC(C)(C)C2(O)Cn2cncn2)cc1 (stereo not shown) [compound 11]
aromatase
  IC50: 2.6 µM
mastocarcinoma; [1]
  inhibition in vivo at 20 mg/kg: 71%

## CC(C)(C)c1ccc(CC2CCC(C)(C)C2(O)Cn2ccnc2)cc1 (stereo not shown) [compound 12]
aromatase
  IC50: 4.2 µM
mastocarcinoma; [1]
  inhibition in vivo at 20 mg/kg: 73%

## CC(C)c1ccc(CC2CCC(C)(C)C2(O)Cn2cncn2)cc1 (stereo not shown) [compound 13]
aromatase
  IC50: 8.4 µM
mastocarcinoma; [1]
  inhibition in vivo at 20 mg/kg: 55%

## CC(C)c1ccc(CC2CCC(C)(C)C2(O)Cn2ccnc2)cc1 (stereo not shown) [compound 14]
aromatase
  IC50: 6 µM
mastocarcinoma; [1]
  inhibition in vivo at 20 mg/kg: 63%

## CC1(C)CCC(Cc2ccc(Cl)cc2)C1(O)Cn1cncn1 (stereo not shown) [compound 15]
aromatase
  IC50: 4.7 µM
mastocarcinoma; ip
  inhibition in vivo at 20 mg/kg: 74%

## CC1(C)CCC(Cc2ccc(Cl)cc2)C1(O)Cn1ccnc1 (stereo not shown) [compound 16]
aromatase
  IC50: 0.3 µM
mastocarcinoma; [1]
  inhibition in vivo at 20 mg/kg: 83%

## CC1(C)CCC(Cc2ccc(F)cc2F)C1(O)Cn1ccnc1 (stereo not shown) [compound 17]
aromatase
  IC50: 0.4 µM
mastocarcinoma; [1]
  inhibition in vivo at 20 mg/kg: 67%

## CC1(C)CCC(Cc2ccc(C(F)(F)F)cc2)C1(O)Cn1cncn1 (stereo not shown) [compound 18]
aromatase
  IC50: 7.2 µM
mastocarcinoma; [1]
  inhibition in vivo at 20 mg/kg: 65%

## CC1(C)CCC(Cc2ccc(C(F)(F)F)cc2)C1(O)Cn1ccnc1 (stereo not shown) [compound 19]
aromatase
  IC50: 5.5 µM
mastocarcinoma; [1]
  inhibition in vivo at 20 mg/kg: 63%

## CC(C)c1ccc(CC2CCCC2(O)Cn2cncn2)cc1 (stereo not shown) [compound 20]
aromatase
  IC50: 4.3 µM
mastocarcinoma; [1]
  inhibition in vivo at 20 mg/kg: 60%

## CC(C)c1ccc(CC2CCCC2(O)Cn2ccnc2)cc1 (stereo not shown) [compound 21]
aromatase; [2]
  IC50: 6.3 µM
mastocarcinoma; [1]
  inhibition in vivo at 20 mg/kg: 72%
